Results on 2 molecules are retold here after ChEMBL document CHEMBL1201862, “PubChem BioAssay data set” (2004).

Test [1] can be described thus: fluconazole-exposed Candida albicans growth modulators – fluorescence, retest, confirmation (AID 2467). The class given is functional, cell-based.
Test [2] deals with T1, Serine/threonine-protein phosphatase (Candida dubliniensis (strain CD36 / CBS 7987 / NCPF 3949 / NRRLY-17841) (Yeast), UniProt B9W6M3).
T1 sequence (B9W6M3 whole entry): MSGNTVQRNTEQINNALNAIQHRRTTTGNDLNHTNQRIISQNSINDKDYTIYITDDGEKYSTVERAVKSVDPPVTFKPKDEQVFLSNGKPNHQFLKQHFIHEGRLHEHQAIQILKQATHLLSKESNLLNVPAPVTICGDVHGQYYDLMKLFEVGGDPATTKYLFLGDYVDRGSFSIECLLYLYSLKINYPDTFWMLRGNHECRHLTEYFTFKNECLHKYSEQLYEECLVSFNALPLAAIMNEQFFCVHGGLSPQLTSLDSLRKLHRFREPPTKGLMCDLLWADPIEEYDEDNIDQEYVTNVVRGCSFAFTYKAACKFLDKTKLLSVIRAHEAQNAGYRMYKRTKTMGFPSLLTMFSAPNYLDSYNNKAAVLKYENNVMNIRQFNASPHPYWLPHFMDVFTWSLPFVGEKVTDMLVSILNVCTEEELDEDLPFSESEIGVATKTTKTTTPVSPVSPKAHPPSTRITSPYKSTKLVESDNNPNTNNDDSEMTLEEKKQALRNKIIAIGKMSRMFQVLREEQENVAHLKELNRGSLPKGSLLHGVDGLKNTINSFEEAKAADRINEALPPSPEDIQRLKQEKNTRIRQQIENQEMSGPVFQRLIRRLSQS
The test is described as follows: blockers of CaCl2-induced CDRE-lacZ signaling – S. cerevisiae, luminescence, secondary, dose response (AID 2388).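 Further: yeast reporter cells carrying a calcineurin-responsive lacZ construct stimulated with calcium chloride; luminescent beta-galactosidase reporter signal in whole cells rather than isolated phosphatase activity; potency for inhibition where a drop in reporter signal means calcineurin blockade.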 It is filed as functional, cell-based.

Test [3] concerns the target T1, Serine/threonine-protein phosphatase. Briefly: Fluorescence Cell-Based Secondary Assay to Identify Inhibitors of Calcineurin. [Related pubchem assays (depositor defined):AID1979, AID2007]. The class given is functional.
The test system of another test is H9c2. Briefly: cells. It is filed as functional, cell-based. Particulars: Rattus norvegicus, H9c2, Myocardium.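 Further: confirmatory concentration-response retest of ultra-high-throughput screening hits for modulation of myocardial damage; cell death induced by hydrogen peroxide oxidative stress; compound pretreatment for 60 min then peroxide exposure for 2 h; potency is for protecting the cells against peroxide damage rather than for killing them.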
Test [4] concerns the target Tyrosine-protein kinase Fyn (Homo sapiens, UniProt P06241). The class given is functional.
The target of test [5] is Mitogen-activated protein kinase kinase kinase kinase 2 (Homo sapiens, UniProt Q12851). It is filed as functional.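 Further: measured as one member of a kinome-wide kinase panel, with MAP4K2 as the panel entry.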
In test [6] the target is Mitogen-activated protein kinase kinase kinase kinase 5 (Homo sapiens, UniProt Q9Y4K4). It is filed as functional.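 Further: measured as one member of a kinome-spanning kinase panel.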
Test [7] concerns the target Serine/threonine-protein kinase Nek4 (Homo sapiens, UniProt P51957). It is filed as functional.
The target in test [8] is Serine/threonine-protein kinase pim-1 (Homo sapiens, UniProt P11309). It is filed as functional.
Chain of Serine/threonine-protein kinase pim-1 (P11309 whole entry): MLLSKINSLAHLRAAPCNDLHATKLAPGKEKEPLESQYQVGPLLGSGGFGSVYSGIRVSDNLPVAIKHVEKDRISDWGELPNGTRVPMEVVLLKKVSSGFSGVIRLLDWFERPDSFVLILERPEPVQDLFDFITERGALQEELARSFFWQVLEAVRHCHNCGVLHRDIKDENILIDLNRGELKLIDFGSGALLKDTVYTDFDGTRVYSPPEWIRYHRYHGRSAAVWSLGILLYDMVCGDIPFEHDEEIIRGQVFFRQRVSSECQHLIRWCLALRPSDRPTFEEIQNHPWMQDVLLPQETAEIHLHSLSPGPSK
The target in test [9] is Tyrosine-protein kinase Blk (Homo sapiens, UniProt P51451). It is filed as functional.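 Further: obtained as one member of a kinome-wide kinase assay panel.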
Chain of Tyrosine-protein kinase Blk (P51451 whole entry): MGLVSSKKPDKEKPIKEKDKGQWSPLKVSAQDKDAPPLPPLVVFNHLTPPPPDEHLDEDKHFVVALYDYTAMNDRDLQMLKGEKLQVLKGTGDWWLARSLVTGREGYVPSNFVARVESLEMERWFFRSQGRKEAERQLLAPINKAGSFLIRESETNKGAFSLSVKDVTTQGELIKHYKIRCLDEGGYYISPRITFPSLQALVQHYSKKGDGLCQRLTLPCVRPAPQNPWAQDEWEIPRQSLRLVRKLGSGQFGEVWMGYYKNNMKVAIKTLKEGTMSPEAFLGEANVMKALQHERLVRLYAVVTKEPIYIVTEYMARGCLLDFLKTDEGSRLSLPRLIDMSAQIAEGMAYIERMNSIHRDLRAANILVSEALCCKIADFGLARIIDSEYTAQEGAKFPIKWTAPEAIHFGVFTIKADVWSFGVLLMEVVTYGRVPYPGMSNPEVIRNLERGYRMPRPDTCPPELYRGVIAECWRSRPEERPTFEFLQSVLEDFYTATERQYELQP
For test [10], the target named is Interleukin-1 receptor-associated kinase 1 (Homo sapiens, UniProt P51617). The class given is functional.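 Further: IRAK1 tested as one member of a kinome panel.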
Test [11] deals with Dual specificity tyrosine-phosphorylation-regulated kinase 4 (Homo sapiens, UniProt Q9NR20). The class given is functional.
In test [12] the target is Fibroblast growth factor receptor 3 (Homo sapiens, UniProt P22607). The class given is functional.
In test [13] the target is Serine/threonine-protein kinase PAK 1 (Homo sapiens, UniProt Q13153). The class given is functional.
The target of test [14] is Ribosomal protein S6 kinase beta-1 (Homo sapiens, UniProt P23443). The class given is functional.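 Further: measured as one member of a kinome-wide profiling panel.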
Test [15] addresses Tyrosine-protein kinase Lyn (Homo sapiens, UniProt P07948). The class given is functional.
Test [16] addresses Serine/threonine-protein kinase Chk2 (Homo sapiens, UniProt O96017). The class given is functional.
Test [17] deals with Vascular endothelial growth factor receptor 3 (Homo sapiens, UniProt P35916). It is filed as functional.
The target of test [18] is RAC-gamma serine/threonine-protein kinase (Homo sapiens, UniProt Q9Y243). It is filed as functional.
Chain of RAC-gamma serine/threonine-protein kinase (Q9Y243 whole entry): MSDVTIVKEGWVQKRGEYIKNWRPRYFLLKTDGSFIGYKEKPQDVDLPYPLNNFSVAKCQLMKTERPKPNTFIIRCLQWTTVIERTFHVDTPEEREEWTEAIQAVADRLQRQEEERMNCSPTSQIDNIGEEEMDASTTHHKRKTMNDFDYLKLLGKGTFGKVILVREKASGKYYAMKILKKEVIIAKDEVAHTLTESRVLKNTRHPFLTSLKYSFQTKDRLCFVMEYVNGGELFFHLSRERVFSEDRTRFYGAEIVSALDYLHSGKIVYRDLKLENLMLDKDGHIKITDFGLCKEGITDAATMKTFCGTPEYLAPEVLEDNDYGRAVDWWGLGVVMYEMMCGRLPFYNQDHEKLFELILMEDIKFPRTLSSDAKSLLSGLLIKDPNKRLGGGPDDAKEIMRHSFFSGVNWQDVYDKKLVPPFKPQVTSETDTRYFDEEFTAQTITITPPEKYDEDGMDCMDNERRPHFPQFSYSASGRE
Test [19] concerns the target Testis-specific serine/threonine-protein kinase 1 (Homo sapiens, UniProt Q9BXA7). It is filed as functional.
Test [20] concerns the target STE20-like serine/threonine-protein kinase (Homo sapiens, UniProt Q9H2G2). The class given is functional.
The target in test [21] is Receptor tyrosine-protein kinase erbB-2 (Homo sapiens, UniProt P04626). The test is described as follows: Navigating the Kinome. Panel member name: ERBB2. The class given is functional.
Chain of Receptor tyrosine-protein kinase erbB-2 (P04626 whole entry): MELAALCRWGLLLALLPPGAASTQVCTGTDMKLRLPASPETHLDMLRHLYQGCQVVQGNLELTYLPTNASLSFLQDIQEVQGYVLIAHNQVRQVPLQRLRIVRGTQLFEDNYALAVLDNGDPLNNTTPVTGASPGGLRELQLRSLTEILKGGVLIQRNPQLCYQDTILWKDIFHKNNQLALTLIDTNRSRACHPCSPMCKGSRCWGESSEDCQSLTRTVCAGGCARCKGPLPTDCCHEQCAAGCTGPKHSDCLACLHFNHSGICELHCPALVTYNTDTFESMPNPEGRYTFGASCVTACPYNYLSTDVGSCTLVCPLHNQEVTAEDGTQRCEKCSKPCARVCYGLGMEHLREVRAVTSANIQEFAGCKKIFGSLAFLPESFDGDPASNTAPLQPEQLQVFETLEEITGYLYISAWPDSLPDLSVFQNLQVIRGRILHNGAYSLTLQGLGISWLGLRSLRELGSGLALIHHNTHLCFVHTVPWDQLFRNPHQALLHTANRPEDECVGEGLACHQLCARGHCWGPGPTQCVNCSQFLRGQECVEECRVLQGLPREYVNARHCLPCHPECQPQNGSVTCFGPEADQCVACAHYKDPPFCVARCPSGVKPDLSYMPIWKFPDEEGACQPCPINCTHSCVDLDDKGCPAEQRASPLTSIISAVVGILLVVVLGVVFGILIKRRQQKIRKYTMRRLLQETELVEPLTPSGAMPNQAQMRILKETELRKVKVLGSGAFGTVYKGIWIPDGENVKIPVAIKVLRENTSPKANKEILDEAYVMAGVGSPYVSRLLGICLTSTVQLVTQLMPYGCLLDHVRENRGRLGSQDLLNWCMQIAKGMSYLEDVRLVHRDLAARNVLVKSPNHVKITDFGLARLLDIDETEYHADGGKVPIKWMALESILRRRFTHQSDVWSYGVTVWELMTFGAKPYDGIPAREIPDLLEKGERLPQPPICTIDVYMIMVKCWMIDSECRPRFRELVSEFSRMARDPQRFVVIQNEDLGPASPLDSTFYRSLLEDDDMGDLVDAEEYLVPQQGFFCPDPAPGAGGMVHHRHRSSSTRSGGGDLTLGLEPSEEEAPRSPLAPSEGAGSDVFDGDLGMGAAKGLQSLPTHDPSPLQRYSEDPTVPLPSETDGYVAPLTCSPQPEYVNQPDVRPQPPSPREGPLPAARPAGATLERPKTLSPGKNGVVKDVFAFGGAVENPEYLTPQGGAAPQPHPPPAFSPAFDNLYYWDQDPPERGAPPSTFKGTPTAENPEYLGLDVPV
In test [22] the target is Serine/threonine-protein kinase PLK3 (Homo sapiens, UniProt Q9H4B4). It is filed as functional.
The target in test [23] is Serine/threonine-protein kinase DCLK1 (Homo sapiens, UniProt O15075). It is filed as functional.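 Further: affinity for DCLK1 (listed as DCAMKL1) measured as one member of a kinome-wide kinase profiling panel.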
Test [24] concerns the target 3-phosphoinositide-dependent protein kinase 1 (Homo sapiens, UniProt O15530). The class given is functional.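 Further: value comes from the Navigating the Kinome panel, PDPK1 member.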
The target in test [25] is Glycogen synthase kinase-3 beta (Homo sapiens, UniProt P49841). The class given is functional.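 Further: value comes from a broad kinome profiling panel, with GSK3B as the panel member.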
In test [26] the target is Serine/threonine-protein kinase pim-3 (Homo sapiens, UniProt Q86V86). The class given is functional.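 Further: value obtained as one member of a broad kinase panel profiling effort.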
The target in test [27] is Mast/stem cell growth factor receptor Kit (Homo sapiens, UniProt P10721). The class given is functional.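 Further: KIT entry within a kinase panel assay.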
Chain of Mast/stem cell growth factor receptor Kit (P10721 whole entry): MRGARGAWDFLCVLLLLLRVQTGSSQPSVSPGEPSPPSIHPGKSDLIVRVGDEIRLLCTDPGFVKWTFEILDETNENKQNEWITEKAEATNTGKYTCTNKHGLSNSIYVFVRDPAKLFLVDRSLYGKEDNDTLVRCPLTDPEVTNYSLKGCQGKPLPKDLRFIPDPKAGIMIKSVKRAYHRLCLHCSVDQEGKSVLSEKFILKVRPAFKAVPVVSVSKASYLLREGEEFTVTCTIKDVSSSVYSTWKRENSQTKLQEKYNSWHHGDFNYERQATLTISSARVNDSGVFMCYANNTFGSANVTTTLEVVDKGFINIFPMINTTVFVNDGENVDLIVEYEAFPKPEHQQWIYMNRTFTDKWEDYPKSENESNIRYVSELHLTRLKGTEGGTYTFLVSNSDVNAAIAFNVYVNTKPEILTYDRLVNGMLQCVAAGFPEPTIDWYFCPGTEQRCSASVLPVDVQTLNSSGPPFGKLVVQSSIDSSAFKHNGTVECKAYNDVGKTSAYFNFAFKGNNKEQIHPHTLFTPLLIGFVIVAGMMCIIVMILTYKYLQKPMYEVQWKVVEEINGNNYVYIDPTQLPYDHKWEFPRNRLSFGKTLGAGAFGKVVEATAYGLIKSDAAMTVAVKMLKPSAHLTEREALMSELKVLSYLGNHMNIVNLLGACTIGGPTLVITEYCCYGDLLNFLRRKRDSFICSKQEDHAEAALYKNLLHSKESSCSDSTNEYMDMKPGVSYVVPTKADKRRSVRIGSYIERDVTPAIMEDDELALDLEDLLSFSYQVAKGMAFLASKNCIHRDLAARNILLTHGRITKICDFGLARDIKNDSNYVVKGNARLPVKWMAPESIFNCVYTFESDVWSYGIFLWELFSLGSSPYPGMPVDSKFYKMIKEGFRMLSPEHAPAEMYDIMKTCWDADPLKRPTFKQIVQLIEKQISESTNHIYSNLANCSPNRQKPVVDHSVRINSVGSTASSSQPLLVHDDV
The target in test [28] is Cyclin-dependent kinase 5 (Homo sapiens, UniProt Q00535). It is filed as functional.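 Further: CDK5 measured as one member of a kinase profiling panel.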
Chain of Cyclin-dependent kinase 5 (Q00535 whole entry): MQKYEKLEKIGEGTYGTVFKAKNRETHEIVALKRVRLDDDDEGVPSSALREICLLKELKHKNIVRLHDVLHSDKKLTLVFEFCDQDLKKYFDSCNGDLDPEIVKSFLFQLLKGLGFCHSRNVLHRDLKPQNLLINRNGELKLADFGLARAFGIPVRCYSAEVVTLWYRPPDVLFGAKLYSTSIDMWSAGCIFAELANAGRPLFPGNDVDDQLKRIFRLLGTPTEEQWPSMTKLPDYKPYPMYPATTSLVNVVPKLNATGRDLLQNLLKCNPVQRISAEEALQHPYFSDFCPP
The target of test [29] is Cell division cycle 7-related protein kinase (Homo sapiens, UniProt O00311). The class given is functional.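 Further: value obtained from a kinome-wide kinase panel.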

The source made the active and inactive calls.

Chain of Serine/threonine-protein kinase Nek4 (P51957 whole entry): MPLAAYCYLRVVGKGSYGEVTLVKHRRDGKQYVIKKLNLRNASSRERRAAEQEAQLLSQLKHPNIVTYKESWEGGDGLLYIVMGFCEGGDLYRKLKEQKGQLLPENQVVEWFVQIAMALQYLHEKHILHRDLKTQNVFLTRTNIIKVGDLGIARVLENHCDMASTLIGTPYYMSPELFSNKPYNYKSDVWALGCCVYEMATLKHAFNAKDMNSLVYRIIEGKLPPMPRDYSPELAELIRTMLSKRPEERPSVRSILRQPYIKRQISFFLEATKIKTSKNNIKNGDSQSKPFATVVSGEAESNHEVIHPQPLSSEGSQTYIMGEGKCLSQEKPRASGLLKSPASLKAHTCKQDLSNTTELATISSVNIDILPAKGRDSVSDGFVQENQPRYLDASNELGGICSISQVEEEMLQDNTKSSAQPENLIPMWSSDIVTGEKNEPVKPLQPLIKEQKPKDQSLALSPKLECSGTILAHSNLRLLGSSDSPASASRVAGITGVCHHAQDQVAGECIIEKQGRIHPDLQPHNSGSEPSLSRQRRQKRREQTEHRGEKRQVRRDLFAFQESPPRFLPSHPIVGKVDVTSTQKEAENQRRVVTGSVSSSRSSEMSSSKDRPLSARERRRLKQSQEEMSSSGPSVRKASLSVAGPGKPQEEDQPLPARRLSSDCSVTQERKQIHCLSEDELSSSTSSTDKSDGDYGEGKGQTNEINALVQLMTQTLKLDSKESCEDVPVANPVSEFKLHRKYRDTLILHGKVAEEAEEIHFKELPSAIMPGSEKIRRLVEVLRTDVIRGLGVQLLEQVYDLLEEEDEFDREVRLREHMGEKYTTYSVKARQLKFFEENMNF
Chain of Testis-specific serine/threonine-protein kinase 1 (Q9BXA7 whole entry): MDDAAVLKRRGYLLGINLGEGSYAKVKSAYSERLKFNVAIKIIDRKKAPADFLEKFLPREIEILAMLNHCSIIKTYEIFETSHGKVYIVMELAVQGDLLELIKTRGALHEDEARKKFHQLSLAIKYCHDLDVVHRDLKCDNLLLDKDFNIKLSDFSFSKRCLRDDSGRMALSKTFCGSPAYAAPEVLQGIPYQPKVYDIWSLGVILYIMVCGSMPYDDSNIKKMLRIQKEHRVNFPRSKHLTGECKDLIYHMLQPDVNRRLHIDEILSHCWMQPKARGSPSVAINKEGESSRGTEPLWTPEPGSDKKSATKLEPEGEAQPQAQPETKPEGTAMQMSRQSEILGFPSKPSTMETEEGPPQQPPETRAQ

Consider `COc1ccc(-c2nnc(NC(=O)c3ccc(F)cc3)o2)cc1`, for which the half-maximal effective concentration (EC50) was 305 nM (active) in [1], > 180000 nM (inactive) in [2] and > 285000 nM (inactive) in [3]. In addition, the IC50 in the test with H9c2 is > 79000 nM (inactive).

For the molecule `CCn1c(-c2nonc2N)nc2cnc(Oc3cccc(NC(=O)c4ccc(OCCN5CCOCC5)cc4)c3)cc21` [GSK-269962A], the Ki in test [4] is > 794 nM (inactive); in test [5] it was > 6310 nM (inactive); in test [6] it was 1580 nM (active); in test [7] it was > 6310 nM (inactive); in test [8] it was 316 nM (active); in [9], > 1580 nM (inactive). For the same molecule, the Ki in test [10] is > 7940 nM (inactive); in [11], > 7940 nM (inactive); in test [12] it was > 2000 nM (inactive); in test [13] it was > 10000 nM (inactive); in test [14], 3.16 nM (active); in [15], > 1580 nM (inactive). Besides, the Ki is > 1580 nM (inactive) in test [16]; 3160 nM (active) in [17]; 2000 nM (active) in [18]; 50.1 nM (active) in test [19]; 1580 nM (active) in [20]; > 1580 nM (inactive) in test [21]. For the same molecule, the Ki in test [22] was > 7940 nM (inactive); in test [23], > 10000 nM (inactive); in test [24] it was > 3980 nM (inactive); in [25], 63.1 nM (active); in [26], 1580 nM (active); in test [27], > 1260 nM (inactive). Also, the values for the Ki in [28] and in [29] were > 10000 nM (inactive) and 79.4 nM (active), respectively.

As a reminder, the EC50 is the concentration giving half of the maximal effect. By IC50 is commonly meant the concentration needed to halve the response being measured. The Ki is a dissociation constant, usually derived from enzyme kinetics or from competition with a known ligand.
